Laboratory results: patent US12662451B2, “Chemical compounds and uses thereof” (GLAXOSMITHKLINE INTELLECTUAL PROPERTY (NO.4) LIMITED, priority 2023, dated 2026)
Like-named read-outs stand apart in the source and are kept apart here.

How the values were obtained:
[1] = Cell culture media unbound percentage and stability by rapid equilibrium dialysis (Example C); format: in vitro ADME; settings: bovine, cell assay medium (RPMI-1640 with 10% fetal bovine serum), pH 7.4, rapid equilibrium dialysis, 4 hours at 37° C., read-out: Cell Culture Media Binding (% unbound)
Summary of the method: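 Percent unbound in cell assay medium came from the LC-MS/MS receiver:donor peak area ratio, with stability taken as the 240 min over 0 min ratio. Set-up: 1 μM nominal compound in medium dialysed against pH 7.4 PBS (100 mM phosphate, 150 mM NaCl), 4 h, 37° C, shaken, in triplicate.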

[2] = system: SW48 human colorectal cancer cells (MSI-H cancer cells); experiment: SW48 cell viability, CellTiter-Glo, 120 hours (Example B); settings: for CC50: Homo sapiens
Procedure: SW48 human colorectal cancer cells (MSI-H cancer cells) were obtained from the American Type Culture Collection and maintained in growth medium composed of RPMI-1640 supplemented with 10% fetal bovine serum. Cells were maintained in a humidified 5% CO2 incubator at 37° C. Cell dissociation was conducted using TrypLE Select to detach cells from culture flasks. Following dissociation, cells were centrifuged briefly and resuspended in assay medium RPMI-1640+10% fetal bovine serum. Black 384-well assay plates were prepared from source plates of DMSO and compounds dissolved in DMSO prior to cell dispensation. These source plates were prepared in eleven point, 3-fold serial dilutions from 10 mM stocks stored at 4° C. Compounds and DMSO controls were dispensed into assay plates at 150 nanoliters per well from source plates using Labcyte Echo 555 or Echo 655T dispensers with Column 6 and Column 18 containing DMSO only. Cells were then seeded into prepared assay plates in 50 microliters assay medium at 250 cells per well into Columns 1 thru 17 and Columns 19-24. Assay medium without cells was added to column 18 to serve as a surrogate for 100% cell cytotoxicity. Following incubation for 120 hours in a humidified 5% CO2 incubator at 37° C., cellular ATP concentration of each well was measured and used as a surrogate of cell viability. This was performed by adding 50 microliters of CellTiter-Glo reagent to each well followed by a 10-minute incubation at room temperature. Luminescence was measured on a Synergy Neo or Synergy Neo2 multimode plate reader. Compound cytotoxic response (% C) was normalized to the robust means of column 6 (Control 1, 0% Cytotoxicity) and column 18 (Control 2, 100% Cytotoxicity) and normalized % cytotoxicity (% C) calculated. % C=100−100*((Compound−Control 2)/(Control1−Control2)). These normalized data were then used to determine a 50% cytotoxic response (CC50) using 4-parameter logistic curve model 201 in Activity Base XE:
[formula] • where A=minimum asymptote (% cytotoxicity), B=maximum asymptote (% cytotoxicity), C=Log CC50 (pCC50), D=Hill slope, and x=[inhibitor], (M).

[3] = molecular target: T1, recombinant full-length WRN protein (1-1432) (Homo sapiens, UniProt Q14191); experiment: WRN unwinding activity, fluorogenic 384-well assay (Example A); format: biochemical; settings: WRN unwinding activity, 4 hr; Table 2; read-out: 4 hr UNW pIC50 (converted)
T1 construct: recombinant full-length WRN protein (1-1432)
T1 sequence (Q14191 whole entry): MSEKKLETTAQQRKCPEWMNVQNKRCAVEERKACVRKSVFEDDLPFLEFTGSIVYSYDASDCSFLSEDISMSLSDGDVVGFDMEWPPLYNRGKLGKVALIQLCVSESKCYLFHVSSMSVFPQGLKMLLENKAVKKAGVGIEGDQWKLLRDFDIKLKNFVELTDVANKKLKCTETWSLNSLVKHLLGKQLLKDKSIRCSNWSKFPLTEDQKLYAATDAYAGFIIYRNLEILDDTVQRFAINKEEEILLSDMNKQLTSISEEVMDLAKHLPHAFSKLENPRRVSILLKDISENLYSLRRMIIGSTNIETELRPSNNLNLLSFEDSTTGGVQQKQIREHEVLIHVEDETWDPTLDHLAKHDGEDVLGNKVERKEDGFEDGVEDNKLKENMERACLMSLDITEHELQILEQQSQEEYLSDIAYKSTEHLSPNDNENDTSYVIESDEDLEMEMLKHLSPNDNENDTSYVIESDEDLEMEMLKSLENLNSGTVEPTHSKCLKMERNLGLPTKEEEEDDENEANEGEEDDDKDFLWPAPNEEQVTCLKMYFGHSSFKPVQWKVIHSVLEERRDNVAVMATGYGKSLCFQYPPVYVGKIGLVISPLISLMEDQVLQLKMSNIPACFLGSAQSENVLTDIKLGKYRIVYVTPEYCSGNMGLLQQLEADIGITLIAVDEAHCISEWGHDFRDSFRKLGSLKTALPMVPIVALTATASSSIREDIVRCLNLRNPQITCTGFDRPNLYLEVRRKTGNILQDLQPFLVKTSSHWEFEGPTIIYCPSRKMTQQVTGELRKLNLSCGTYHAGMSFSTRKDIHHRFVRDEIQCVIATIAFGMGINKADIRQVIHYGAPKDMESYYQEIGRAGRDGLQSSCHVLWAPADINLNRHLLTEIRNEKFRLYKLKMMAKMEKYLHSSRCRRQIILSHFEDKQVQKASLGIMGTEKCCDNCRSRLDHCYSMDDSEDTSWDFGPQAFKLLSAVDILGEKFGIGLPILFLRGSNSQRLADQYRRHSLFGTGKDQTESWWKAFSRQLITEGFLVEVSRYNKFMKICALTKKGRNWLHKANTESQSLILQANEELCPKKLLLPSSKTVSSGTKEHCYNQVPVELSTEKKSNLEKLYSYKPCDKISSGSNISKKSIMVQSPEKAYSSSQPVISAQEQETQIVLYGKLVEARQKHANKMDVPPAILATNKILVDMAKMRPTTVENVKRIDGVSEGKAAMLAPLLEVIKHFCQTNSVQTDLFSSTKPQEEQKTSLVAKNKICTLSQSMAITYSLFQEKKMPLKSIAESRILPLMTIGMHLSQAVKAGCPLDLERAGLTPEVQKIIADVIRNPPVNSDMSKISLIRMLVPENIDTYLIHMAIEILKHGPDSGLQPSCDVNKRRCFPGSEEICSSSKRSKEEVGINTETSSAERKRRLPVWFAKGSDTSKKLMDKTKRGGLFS
Summary of the method: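 Read-out is end-point unwinding of a fluorophore/quencher duplex (ex 525, em 598 nm) after 60 min with 200 μM ATP and 12 nM DNA (2× stocks), EDTA stop. Compound first sat 4 h with 200 pM WRN (2× stock) in pH 8.0 Tris buffer; four-parameter fit gives pIC50.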

[4] = system: SW48 human colorectal cancer cells; experiment: Calculated free drug potency in SW48 cell assay, corrected with media free fraction (Example C); format: cell-based; settings: Homo sapiens, SW48, SW48 pCC50 corrected with measured free fraction in cell assay media
Summary of the method: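 Free drug potency derives from correcting SW48 assay concentrations with the unbound fraction in medium. That fraction came from RED against pH 7.4 PBS, 1 μM nominal compound, 4 h at 37 °C, quantified by LC-MS/MS peak area ratios at T=240 versus T=0 min.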

[5] = SW48, 120 h, read-out: SW48 pCC50, SW48 cell viability, 120 hours incubation (converted), Table 2
[6] = SW48, read-out: SW48 pCC50, measured potency from Example B, as repeated in Table 3 (converted)

fraction unbound at 4 h, 1 µM [1] | IC50 [3] [nM] | SMILES | CC50 [2, 5] [nM] | CC50 [2, 6] [nM] | CC50 [4] [nM] | SW48 pCC50 ([2]; SW48 cell viability, 120 hours incubation, Table 2)
0.0993 | 1.58 | Cc1nc2cc(S(=O)(=O)N(C)c3ccc([C@H]4C[C@H]5COC[C@H]5[C@@H](C(=O)Nc5ccc(C(F)(F)F)cc5F)[C@@H]4C(=O)O)cc3)ccc2n1C (stereo in doubt) [Example 392, rel-(3aR,4R,5R,6S,7aR)-4-((2-fluoro-4-(trifluoromethyl)phenyl)carbamoyl)-6-(4-((N,1,2-trimethyl-1H-benzo[d]imidazole)-5-sulfonamido)phenyl)octahydroisobenzofuran-5-carboxylic acid] | 251 | 251 | 25.1 | –
0.0499 | 3.98 | O=C(O)[C@@H]1[C@@H](c2ccc(-c3cnsc3)cc2)CCC[C@H]1C(=O)Nc1ccc(C(F)(F)F)cc1F [Example 16, (1R,2R,6S)-2-((2-fluoro-4-(trifluoromethyl)phenyl)carbamoyl)-6-(4-(isothiazol-4-yl)phenyl)cyclohexane-1-carboxylic acid] | 3980 | 3980 | 200 | –
0.0014 | 50.1 | CN(c1ccc([C@H]2CCC[C@@H](C(=O)Nc3ccc(C(F)(F)F)cc3F)[C@@H]2C(=O)O)cc1)S(=O)(=O)c1cc(I)c2occc2c1 [Example 94, (1R,2R,6S)-2-((2-fluoro-4-(trifluoromethyl)phenyl)carbamoyl)-6-(4-((7-iodo-N-methylbenzofuran)-5-sulfonamido)phenyl)cyclohexane-1-carboxylic acid] | – | 3980 | 5.62 | 5.4
0.241 | 2 | CN(C)Cc1cccc(S(=O)(=O)N(C)c2ccc([C@H]3CCC[C@@H](C(=O)Nc4ccc(C(F)(F)F)cc4F)[C@@H]3C(=O)O)cc2)c1 [Example 97] | 1000 | 1000 | 240 | –
0.0349 | 5.01 | CN(c1ccc([C@H]2CCC[C@@H](C(=O)Nc3ccc(C(F)(F)F)cc3F)[C@@H]2C(=O)O)cc1)S(=O)(=O)c1ccc2scnc2c1 [Example 101, (1R,2R,6S)-2-((2-fluoro-4-(trifluoromethyl)phenyl)carbamoyl)-6-(4-(N-methylbenzo[d]thiazole-5-sulfonamido)phenyl)cyclohexane-1-carboxylic acid] | 1260 | 1260 | 43.7 | –
0.0245 | 5.01 | CN(c1ccc([C@H]2CCC[C@@H](C(=O)Nc3ccc(C(F)(F)F)cc3F)[C@@H]2C(=O)O)cc1)S(=O)(=O)c1ccc2c(ccn2C)c1 [Example 107, (1R,2S,6R)-2-(4-((N, 1-dimethyl-1H-indole)-5-sulfonamido)phenyl)-6-((2-fluoro-4-(trifluoromethyl)phenyl)carbamoyl)cyclohexane-1-carboxylic acid] | 794 | 794 | 19.5 | –
0.0829 | 1 | CN(c1ccc([C@H]2CCC[C@@H](C(=O)Nc3ccc(C(F)(F)F)cc3F)[C@@H]2C(=O)O)cc1)S(=O)(=O)c1ccccc1 [Example 109, (1R,2R,6S)-2-((2-fluoro-4-(trifluoromethyl)phenyl)carbamoyl)-6-(4-(N-methylphenylsulfonamido)phenyl)cyclohexane-1-carboxylic acid] | 1260 | 1260 | 105 | –
0.0085 | 3.98 | CN(c1ccc([C@H]2CCC[C@@H](C(=O)Nc3ccc(C(F)(F)F)cc3F)[C@@H]2C(=O)O)cc1)S(=O)(=O)c1ccc2ccn(C)c2c1 [Example 110, (1R,2S,6R)-2-(4-((N,1-dimethyl-1H-indole)-6-sulfonamido)phenyl)-6-((2-fluoro-4-(trifluoromethyl)phenyl)carbamoyl)cyclohexane-1-carboxylic acid] | 1260 | 1260 | 10.7 | –
0.0405 | 2.51 | CN(c1ccc([C@H]2CCC[C@@H](C(=O)Nc3ccc(C(F)(F)F)cc3F)[C@@H]2C(=O)O)cc1)S(=O)(=O)c1ccc2c(c1)OCC2 [Example 112, (1R,2R,6S)-2-((2-fluoro-4-(trifluoromethyl)phenyl)carbamoyl)-6-(4-((N-methyl-2,3-dihydrobenzofuran)-6-sulfonamido)phenyl)cyclohexane-1-carboxylic acid] | 794 | 794 | 32.4 | –
0.0899 | 1.58 | CN(c1ccc([C@H]2CCC[C@@H](C(=O)Nc3ccc(C(F)(F)F)cc3F)[C@@H]2C(=O)O)cc1)S(=O)(=O)c1cccc(C2CNC(=O)C2)c1 (stereo partly drawn) [Example 113, (1R,2R,6S)-2-((2-fluoro-4-(trifluoromethyl)phenyl)carbamoyl)-6-(4-((N-methyl-3-(5-oxopyrrolidin-3-yl)phenyl)sulfonamido)phenyl)cyclohexane-1-carboxylic acid] | 631 | 631 | 56.2 | –
0.286 | 1.58 | CN1CCC[C@@H](c2cccc(S(=O)(=O)N(C)c3ccc([C@H]4CCC[C@@H](C(=O)Nc5ccc(C(F)(F)F)cc5F)[C@@H]4C(=O)O)cc3)c2)C1 [Example 116, (1R,2R,6S)-2-((2-fluoro-4-(trifluoromethyl)phenyl)carbamoyl)-6-(4-((N-methyl-3-((S)-1-methylpiperidin-3-yl)phenyl)sulfonamido)phenyl)cyclohexane-1-carboxylic acid] | 501 | 501 | 145 | –
0.231 | 1.58 | CN(c1ccc([C@H]2CCC[C@@H](C(=O)Nc3ccc(C(F)(F)F)cc3F)[C@@H]2C(=O)O)cc1)S(=O)(=O)c1cccc(C(=O)N2CCOCC2)c1 [Example 119, (1R,2R,6S)-2-((2-fluoro-4-(trifluoromethyl)phenyl)carbamoyl)-6-(4-((N-methyl-3-(morpholine-4-carbonyl)phenyl)sulfonamido)phenyl)cyclohexane-1-carboxylic acid] | 1000 | 1000 | 229 | –
0.0107 | 10 | CN(c1ccc([C@H]2CCC[C@@H](C(=O)Nc3ccc(C(F)(F)F)cc3F)[C@@H]2C(=O)O)cc1)S(=O)(=O)c1cccc(C2CC2(F)F)c1 (stereo partly drawn) [Example 120, (1R,2S,6R)-2-(4-((3-(2,2-difluorocyclopropyl)-N-methylphenyl)sulfonamido)phenyl)-6-((2-fluoro-4-(trifluoromethyl)phenyl)carbamoyl)cyclohexane-1-carboxylic acid] | 3160 | 3160 | 33.9 | –
0.0195 | 3.16 | CN(C)c1nc2cc(S(=O)(=O)N(C)c3ccc([C@H]4CCC[C@@H](C(=O)Nc5ccc(C(F)(F)F)cc5F)[C@@H]4C(=O)O)cc3)ccc2n1C [Example 121, (1R,2S,6R)-2-(4-((2-(dimethylamino)-N, 1-dimethyl-1H-benzo[d]imidazole)-5-sulfonamido)phenyl)-6-((2-fluoro-4-(trifluoromethyl)phenyl)carbamoyl)cyclohexane-1-carboxylic acid] | 316 | 316 | 6.17 | –
0.0056 | 7.94 | CN1CCOc2ccc(S(=O)(=O)N(C)c3ccc([C@H]4CCC[C@@H](C(=O)Nc5ccc(C(F)(F)F)cc5F)[C@@H]4C(=O)O)cc3)cc21 [Example 122, (1R,2S,6R)-2-(4-((N,4-dimethyl-3,4-dihydro-2H-benzo[b][1,4]oxazine)-6-sulfonamido)phenyl)-6-((2-fluoro-4-cyclohe(trifluoromethyl)phenyl)carbamoyl)xane-1-carboxylic acid] | 1000 | 1000 | 5.62 | –
0.0071 | 3.98 | CN1CCN(C)c2cc(S(=O)(=O)N(C)c3ccc([C@H]4CCC[C@@H](C(=O)Nc5ccc(C(F)(F)F)cc5F)[C@@H]4C(=O)O)cc3)ccc21 [Example 123, (1R,2R,6S)-2-((2-fluoro-4-(trifluoromethyl)phenyl)carbamoyl)-6-(4-((N,1,4-trimethyl-1,2,3,4-tetrahydroquinoxaline)-6-sulfonamido)phenyl)cyclohexane-1-carboxylic acid] | 501 | 501 | 3.55 | –
0.097 | 3.98 | Cc1nc2cc(S(=O)(=O)N(C)c3ccc([C@H]4CCC[C@@H](C(=O)Nc5ccc(C(F)(F)F)cc5F)[C@@H]4C(=O)O)cc3)cnc2n1C [Example 124, (1R,2R,6S)-2-((2-fluoro-4-(trifluoromethyl)phenyl)carbamoyl)-6-(4-((N,2,3-trimethyl-3H-imidazo[4,5-b]pyridine)-6-sulfonamido)phenyl)cyclohexane-1-carboxylic acid] | 501 | 501 | 49 | –
